According to publication PMC8300937, “New azolyl-derivatives as multitargeting agents against breast cancer and fungal infections: synthesis, biological evaluation and docking study” (Journal of Enzyme Inhibition and Medicinal Chemistry, 2021):
In brackets after ≈: the same amount, converted by molar mass. Several values for one entry are separate records, joined by “and”; a condition that tells them apart may be missing. Equal values may be shown once. Read-outs that look alike come from different tables or passages of the source.

What was measured:
[1] = target: T1, Recombinant human iNOS (Homo sapiens, UniProt P35228); assay: iNOS inhibition, L-citrulline assay with fluorimetric (HPLC) detection; type: biochemical; conditions: for iNOS % inhibition: compounds at 1 µM, normalised to 1400 W (positive control, 100% inhibition at 1 μM), triplicate, mean ± SD; for inhibition at 1 µM: read-out: iNOS % inhibition
T1 construct: purchased Enzo Life Sciences, Inc
Protocol: The injection volume was 5 μL.
Recombinant human iNOS was purchased from Enzo Life Sciences, Inc. (New York, USA).

[2] = target: T2, aromatase (CYP19A) (Homo sapiens, UniProt P11511); assay: Aromatase inhibition, fluorimetric assay kit (Aromatase-CYP19A Inhibitor Screening kit, BioVision); type: biochemical; conditions: read-out: Aromatase % inhibition
T2 construct: purchased BioVision
T2 sequence (P11511 1-503): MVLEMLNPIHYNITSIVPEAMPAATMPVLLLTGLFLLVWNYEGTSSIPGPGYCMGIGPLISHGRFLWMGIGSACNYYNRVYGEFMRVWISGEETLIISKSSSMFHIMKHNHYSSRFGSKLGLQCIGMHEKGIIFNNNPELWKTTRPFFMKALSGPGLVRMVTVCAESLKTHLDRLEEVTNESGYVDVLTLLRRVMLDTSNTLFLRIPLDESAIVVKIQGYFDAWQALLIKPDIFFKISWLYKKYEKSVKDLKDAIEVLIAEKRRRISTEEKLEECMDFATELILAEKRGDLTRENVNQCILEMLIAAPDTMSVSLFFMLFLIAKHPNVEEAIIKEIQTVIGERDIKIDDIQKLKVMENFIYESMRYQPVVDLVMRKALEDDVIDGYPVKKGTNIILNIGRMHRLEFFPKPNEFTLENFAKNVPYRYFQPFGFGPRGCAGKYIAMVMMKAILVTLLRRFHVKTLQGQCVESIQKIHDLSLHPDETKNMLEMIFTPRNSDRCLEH
Protocol: The aromatase inhibitory activity of the novel compounds was determined using a commercial fluorimetric kit (Aromatase CYP19A Inhibitor Screening kit, BioVision, Milpitas, CA, USA). The assay utilises a fluorogenic aromatase substrate, that is converted into a highly fluorescent metabolite detected in the visible range (Ex/Em = 488/527 nm), ensuring a high signal-to-background ratio with little interference by autofluorescence.

[3] = system: C. albicans ATCC 90028; assay: Antifungal broth microdilution (EUCAST), standard strain; type: cell-based; conditions: Candida albicans
Protocol: The antifungal activity of the most representative compounds was evaluated versus one ATCC 90028 strain and 15 clinical isolates belonging to the most clinically relevant Candida spp. (C. albicans, C. tropicalis, and C. glabrata). All strains were stored at −80 °C in Sabouraud Broth (Oxoid LTD, Basingstoke, Hampshire, England) with 20% of glycerine until their use. The strains were grown on Sabouraud CAF agar (Thermo Fisher Scientific Waltham, MA, USA), and incubated for 24–48 h at 37 °C. […] The in vitro antifungal activity was determined by broth microdilution method with RPMI 1640 (Sigma-Aldrich. ST Louis, MO, USA) as recommended by EUCAST, and the E. Def 7.3, method document (http://www.eucast.org). […] Each plate included the following controls: (i) inoculum suspension (growth control), (ii) drug-free medium, (iii) medium with drug, and (iv) distilled water (used for the inoculum preparation). Fluconazole was used as a reference drug according to the EUCAST guidelines. The plates were incubated for 24 h at 37 °C, and then read with a plate reader at 530 nm. […] Three independent experiments were performed in triplicate.

[4] = target: aromatase; conditions: Figure 1; cited from earlier work
[5] = system: MCF-7 cell line; assay: Cytotoxicity test (lactate dehydrogenase release); type: cell-based, human; conditions: MCF-7, 24 h, DMSO control set as 1
Protocol: (§1) Human breast cancer MCF-7 (HTB-22™) cells were purchased from ATCC® and maintained in Dulbecco’s Modified Eagle Medium (DMEM) high glucose supplemented with 10% of foetal bovine serum (FBS) and 1% of penicillin/streptomycin (all from Gibco-Thermofisher Scientific, MD, USA) at 37 °C and 5% CO2.
After 24 h, cell supernatants were collected from the MTT plate, centrifuged at 450 × g for 4 min and stored on ice. To quantify the cytotoxicity of loading concentrations of compounds 2, 5 and 6 (0–400 µM), the CytoTox 96® Non-Radioactive Cytotoxicity Assay (Promega Corporation, WI, USA) was performed. The CytoTox 96® Assay quantitatively measures lactate dehydrogenase (LDH), a stable cytosolic enzyme released upon cell lysis. The absorbance signal resulting from the conversion of a tetrazolium salt (iodonitrotetrazolium violet; INT) into a red formazan product was measured at 490 and 690 nm (background) with a spectrophotometer (Multiskan GO, Thermo Scientific, Monza, Italy). The results were normalised on MTT absorbances and expressed as fold increases on the LDH released by cultures in the presence of vehicle (DMSO) set as 1.

[6] = system: MCF-7 breast cancer cell line; assay: Cell metabolic activity (MTT assay); type: cell-based; conditions: Homo sapiens, read-out: IC50 cell metabolic activity (MTT)
Protocol: as §1
Cell metabolic activity of MCF-7 human breast cancer cells was assessed by MTT (3–(4,5-dimethylthiazol-2-yl)-2,5-diphenyltetrazolium bromide) test (Sigma Aldrich, Milan, Italy). Cells were seeded (0.1 × 10^4/well) in a 96-well tissue culture-treated plate (Falcon®, Corning Incorporated, NY, USA) and let them adhere for 24 h. Next, the cell monolayer was incubated in the presence of loading concentrations of compounds 2, 5 and 6 (0–400 µM) diluted in DMSO (final concentration 0.2%) for 24, 48 and 72 h. After the exposure time, cells were incubated with 100 μL/well of MTT (5 mg/mL) 1:10 with fresh growth medium (final concentration 0.5 mg/mL) for 4 h at 37 °C and 5% CO2. Finally, the MTT solution was removed and replaced with 100 µL/well of DMSO. Cells were incubated for an additional 20 min at 37 °C and 5% CO2 and afterward gently swirled for 10 min at room temperature. The optical density was measured at 540 nm by means of a spectrophotometer (Multiskan GO, Thermo Scientific, Monza, Italy). Results were expressed as the percentage of cells in the presence of vehicle (DMSO) set as 100% and each experiment was performed in triplicate (n = 3). Concentration-response curves and IC50 were fitted and calculated with the GraphPad Prism 5.0 (GraphPad Software, San Diego, CA, USA)[27].

[7] = Chemical stability in aqueous media at 37 °C (HPLC); type: physicochemical
Protocol: Compounds 2 and 5 contain an ester linkage, therefore their chemical stability was evaluated. Phosphate buffer (pH = 7.4), HCl solution (pH = 2.0), NaOH solution (pH = 9.0) were adopted as media. […] Solutions were kept at 37 °C and monitored for 24 h.
A 0.01 M hydrochloric acid buffer (pH 2), as a non-enzymatic simulated gastric fluid (SGF), a 0.01 M phosphate buffer (pH 7.4) as non-enzymatic simulated intestinal fluid (SIF), and a 0.1 mM sodium hydroxide solution (pH 10) were used in this study. The reactions were initiated by adding 0.1 ml of compound stock solution (1 mg/mL in DMSO) to 1.9 ml aqueous buffer solution, in screw-capped vials at 37 ± 0.5 °C. Samples (5 µL) were withdrawn at appropriate intervals, i.e. after 5 min, 1 h, 2 h, 3 h, 4 h, 6 h, 8 h, and then after 24 h incubation time and analysed by HPLC.

[8] = ATCC90028, C. albicans ATCC 90028, 24 h, ≥50% growth inhibition, read-out: MIC

| Structure (SMILES) | inhibition at 1 µM [2] | MIC [3, 8] | melting point | inhibition at 1 µM [1] | other results |
| --- | --- | --- | --- | --- | --- |
| CC(=N)NCc1cccc(CN)c1 [1400 W, reference compound] |  |  |  |  | iNOS % inhibition [1]: 100% |
| OC(Cc1ccccc1)Cn1ccnc1 (centres unmarked) [Compound 1, 1-(1H-imidazol-1-yl)-3-phenylpropan-2-ol] |  |  |  |  | iNOS % inhibition [1]: complete enzyme inhibition |
| COc1ccc(S(=O)(=O)N2CCCC(Cn3ccnc3)C2)cc1Br (centres unmarked) [Compound 3o] |  |  |  |  | IC50 [4]: 0.006 µM |
| O=C(OC(Cc1ccccc1)Cn1ccnc1)c1cccc(C(=O)c2ccccc2)c1 (centres unmarked) [Compound 4, 1-benzyl-2-(1H-imidazol-1-yl)ethyl 3-benzoylbenzoate] | 36 ± 1.2% | > 64 µg/mL | 86 to 87 °C | 47 ± 1.3% |  |
| O=C(OC(Cc1ccccc1)Cn1ccnc1)c1cc([N+](=O)[O-])cc([N+](=O)[O-])c1 (centres unmarked) [Compound 5, 1-benzyl-2-(1H-imidazol-1-yl)ethyl 3,5-dinitrobenzoate] | 82 ± 3.8% |  | 144 to 145 °C | 100 ± 1.7% | LDH released, fold increase vs control ([5]; 10 µM (lowest concentration tested)): 1.91 folds; LDH released, fold increase vs control ([5]; concentrations after the IC50 (120 µM)): 6.25 folds and 7.50 folds; IC50 ([6]; MCF7, 24 h): 120 µM; IC50 ([6]; MCF7, 48 h): 82.5 µM; IC50 ([6]; MCF7, 72 h): 68.8 µM; MIC ([3]; ATCC90028, 24 h): > 64 µg/mL; Chemical stability in acidic medium ([7]; HCl solution pH = 2.0, 37 °C, monitored for 24 h): stable; Chemical stability in neutral medium ([7]; Phosphate buffer pH = 7.4, 37 °C, monitored for 24 h): stable; half-life at 0.05 mg/mL ([7]; buffer, NaOH solution pH = 9.0, 37 °C, read-out: half-life of hydrolysis in basic medium): 39 min; iNOS % inhibition [1]: complete enzyme inhibition |
| Cc1ccc(S(=O)(=O)N2CCCC(Cn3cncn3)C2)cc1 (centres unmarked) [Compound 14, 1-[(4-methylphenyl)sulphonyl]-3-(1H-1,2,4-triazol-1-ylmethyl)piperidine] | 32 ± 1.2% |  |  | 22 ± 0.5% |  |
| COc1ccc(S(=O)(=O)N2CCCC(Cn3cncn3)C2)c(OC)c1 (centres unmarked) [Compound 15, 1-[(2,4-dimethoxyphenyl)sulphonyl]-3-(1H-1,2,4-triazol-1-ylmethyl)piperidine] | 62 ± 2.8% |  |  | 18 ± 0.1% |  |
| Cc1ccc(S(=O)(=O)N2CCCC(Cn3cncn3)C2)cc1[N+](=O)[O-] (centres unmarked) [Compound 17, 1-[(4-methyl-3-nitrophenyl)sulphonyl]-3-(1H-1,2,4-triazol-1-ylmethyl)piperidine] | 25 ± 1.3% | > 64 µg/mL | 105 to 106 °C | 39 ± 0.2% |  |
| N#Cc1ccc(S(=O)(=O)N2CCCC(Cn3cncn3)C2)c(Cl)c1 (centres unmarked) [Compound 18, 3-chloro-4-{[3-(1H-1,2,4-triazol-1-ylmethyl)piperidin-1-yl]sulphonyl}benzonitrile] | 55 ± 1.1% | > 64 µg/mL | 81 to 82 °C | 14 ± 0.2% |  |
| N#Cc1ccc(S(=O)(=O)N2CCCC(Cn3cncn3)C2)cc1 (centres unmarked) [Compound 19, 4-{[3-(1H-1,2,4-triazol-1-ylmethyl)piperidin-1-yl]sulphonyl}benzonitrile] | 48 ± 1.7% |  | 95 to 96 °C | 16 ± 0.7% |  |
| CC(=O)Nc1ccc(S(=O)(=O)N2CCCC(Cn3cncn3)C2)cc1 (centres unmarked) [Compound 20, N-(4-{[3-(1H-1,2,4-triazol-1-ylmethyl)piperidin-1-yl]sulphonyl}phenyl)acetamide] | 61 ± 2.1% |  |  | 0% |  |
| OC(Cn1cncn1)(Cn1cncn1)c1ccc(F)cc1F [Fluconazole, reference compound] |  | 0.25 µg/mL (≈ 0.816 µM) |  |  |  |
| N#Cc1ccc(C(c2ccc(C#N)cc2)n2cncn2)cc1 [letrozole, reference compound] | 100% |  |  |  |  |

Further lines, with some results ahead:

| inhibition at 1 µM [2] | MIC [3, 8] | melting point | inhibition at 1 µM [1] | Structure (SMILES) | other results |
| --- | --- | --- | --- | --- | --- |
| 13 ± 0.5% | 64 µg/mL (≈ 180 µM) | 71 to 72 °C | 0% | O=C(OC(Cc1ccccc1)Cn1ccnc1)c1ccc2ccccc2c1 (centres unmarked) [Compound 3, 1-benzyl-2-(1H-imidazol-1-yl)ethyl 2-naphthoate] |  |
| 72 ± 1.4% | > 64 µg/mL |  | 52 ± 0.7% | O=C(NCc1ccccc1)OC(Cc1ccccc1)Cn1ccnc1 (centres unmarked) [Compound 6, 1-benzyl-2-(1H-imidazol-1-yl)ethyl benzylcarbamate] | IC50 ([6]; MCF7, MCF-7, 24 h exposure): > 400 µM |
| 15 ± 0.3% | > 64 µg/mL |  | 7 ± 0.08% | COc1ccc(NC(=S)OC(Cc2ccccc2)Cn2ccnc2)c(OC)c1 (centres unmarked) [Compound 7, O-[1-benzyl-2-(1H-imidazol-1-yl)ethyl] (2,4-dimethoxyphenyl)thiocarbamate] |  |
| 54 ± 0.9% |  | 120 to 121 °C | 12 ± 0.1% | COc1cc(C)ccc1NC(=S)OC(Cc1ccccc1)Cn1ccnc1 (centres unmarked) [Compound 8, O-[1-benzyl-2-(1H-imidazol-1-yl)ethyl] (2-methoxy-4-methylphenyl)thiocarbamate] |  |
| 29 ± 1.5% |  | 72 to 73 °C | 27 ± 0.4% | O=S(=O)(c1ccccc1)N1CCCC(Cn2cncn2)C1 (centres unmarked) [Compound 13, 1-(phenylsulfonyl)-3-(1H-1,2,4-triazol-1-ylmethyl)piperidine] |  |
| 63 ± 3.1% | > 64 µg/mL |  | 47 ± 0.3% | O=[N+]([O-])c1cccc(S(=O)(=O)N2CCCC(Cn3cncn3)C2)c1 (centres unmarked) [Compound 16, 1-[(3-nitrophenyl)sulphonyl]-3-(1H-1,2,4-triazol-1-ylmethyl)piperidine] |  |
